Measured values: ChEMBL document CHEMBL4837213, “Hybrids between H2S-donors and betamethasone 17-valerate or triamcinolone acetonide inhibit mast cell degranulation and promote hyperpolarization of bronchial smooth muscle cells” (Eur J Med Chem, 2021)
Active and inactive are the calls of the source. No cut-off for these calls is given here.

Key:
[1] = Drug metabolism in human BSMC cells assessed as intracellular H2S release by measuring increase in fluorescence index at 300 uM measured every 5 mins for 60 mins by WSP-1 dye based spectrofluorometric analysis; type: ADME, cell-based; conditions: 1 h
[2] = (§1) Bronchodilatory activity in human BSMC cells assessed as induction of membrane hyperpolarization at 100 uM by spectrofluorometric analysis relative to NS1619; type: functional
[3] = (§2) Bronchodilatory activity in human BSMC cells assessed as induction of membrane hyperpolarization at 300 uM by spectrofluorometric analysis relative to NS1619; type: functional
RBL-2H3 [4] = test: (§3) Inhibition of DNP-HAS-stimulated mast cell degranulation in rat RBL-2H3 cells assessed as reduction in beta-hexosaminidase release at 100 uM incubated for 5 mins followed by DNP-HAS stimulation for 1 hr by multiplate reader analysis; type: functional; conditions: time 65.0 min
[5] = Drug metabolism in human BSMC cells assessed as intracellular H2S release by measuring increase in fluorescence index at 100 uM measured every 5 mins for 60 mins by WSP-1 dye based spectrofluorometric analysis; type: ADME, cell-based; conditions: 1 h
RBL-2H3 [6] = test: (§4) Inhibition of DNP-HAS-stimulated mast cell degranulation in rat RBL-2H3 cells assessed as reduction in beta-hexosaminidase release at 300 uM incubated for 5 mins followed by DNP-HAS stimulation for 1 hr by multiplate reader analysis; type: functional; conditions: time 65.0 min
[7] = Inhibition of DNP-HAS-stimulated mast cell degranulation in rat RBL-2H3 cells assessed as reduction in beta-hexosaminidase release at 1 mM incubated for 5 mins followed by DNP-HAS stimulation for 1 hr by multiplate reader analysis; type: functional; conditions: RBL-2H3, 1.083 h, time 65 min
BSMC [8] = test: as §1; type: functional
BSMC [9] = test: as §2; type: functional
[10] = as §3; type: functional; conditions: RBL-2H3, 1.083 h, time 65 min
[11] = as §4; type: functional; conditions: RBL-2H3, 1.083 h, time 65 min

Row | Drug metabolism [1] | Drug metabolism [5] | SMILES | inhibition (RBL-2H3 [6]) | also measured
1 | Metabolite_Detected | Metabolite_Notdetected | CC1(C)O[C@@H]2C[C@H]3[C@@H]4CCC5=CC(=O)C=C[C@]5(C)[C@@]4(F)[C@@H](O)C[C@]3(C)[C@]2(C(=O)COC(=O)CCC(=O)Oc2ccc(-c3cc(=S)ss3)cc2)O1 | – | –
2 | Metabolite_Notdetected | Metabolite_Notdetected | Oc1ccc(-c2cc(=S)ss2)cc1 | – | –
3 | Metabolite_Notdetected | Metabolite_Notdetected | CC1(C)O[C@@H]2C[C@H]3[C@@H]4CCC5=CC(=O)C=C[C@]5(C)[C@@]4(F)[C@@H](O)C[C@]3(C)[C@]2(C(=O)COC(=O)CCC(=O)Oc2ccc(C(N)=S)cc2)O1 | – | –
4 | – | – | O=C(O)c1cc(=O)c2c(OCC(O)COc3cccc4oc(C(=O)O)cc(=O)c34)cccc2o1 [CROMOLYN] | – | inhibition at 1000 µM [7]: 20%
5 | – | – | CC1(C)O[C@@H]2C[C@H]3[C@@H]4CCC5=CC(=O)C=C[C@]5(C)[C@@]4(F)[C@@H](O)C[C@]3(C)[C@]2(C(=O)CO)O1 | inactive | –
6 | – | – | CCCCC(=O)O[C@]1(C(=O)CO)[C@@H](C)C[C@H]2[C@@H]3CCC4=CC(=O)C=C[C@]4(C)[C@@]3(F)[C@@H](O)C[C@@]21C | inactive | –
7 | Metabolite_Detected | Metabolite_Notdetected | NC(=S)c1ccc(O)cc1 | – | –
8 | Metabolite_Notdetected | Metabolite_Notdetected | CCCCC(=O)O[C@]1(C(=O)COC(=O)CCC(=O)Oc2ccc(-c3cc(=S)ss3)cc2)[C@@H](C)C[C@H]2[C@@H]3CCC4=CC(=O)C=C[C@]4(C)[C@@]3(F)[C@@H](O)C[C@@]21C | – | –
9 | Metabolite_Detected | Metabolite_Detected | CCCCC(=O)O[C@]1(C(=O)COC(=O)CCC(=O)Oc2ccc(C(N)=S)cc2)[C@@H](C)C[C@H]2[C@@H]3CCC4=CC(=O)C=C[C@]4(C)[C@@]3(F)[C@@H](O)C[C@@]21C | – | –

Row | SMILES | Drug metabolism [1] | Drug metabolism [5] | inhibition (RBL-2H3 [6]) | also measured
10 | CC1(C)O[C@@H]2C[C@H]3[C@@H]4CCC5=CC(=O)C=C[C@]5(C)[C@@]4(F)[C@@H](O)C[C@]3(C)[C@]2(C(=O)COC(=O)CCC(=O)Oc2ccc(N=C=S)cc2)O1 | Metabolite_Detected | Metabolite_Detected | Active | fold change (FC) [2]: 4; fold change (FC) [3]: 4; inhibition (RBL-2H3 [4]): Active
11 | Oc1ccc(N=C=S)cc1 | Metabolite_Detected | Metabolite_Detected | – | Activity (BSMC [8]): Active; Activity (BSMC [9]): Active; inhibition at 100 µM [10]: 75%; inhibition at 300 µM [11]: 75%
12 | CCCCC(=O)O[C@]1(C(=O)COC(=O)CCC(=O)Oc2ccc(N=C=S)cc2)[C@@H](C)C[C@H]2[C@@H]3CCC4=CC(=O)C=C[C@]4(C)[C@@]3(F)[C@@H](O)C[C@@]21C | Metabolite_Detected | Metabolite_Detected | Active | fold change (FC) [2]: 4; fold change (FC) [3]: 4; inhibition (RBL-2H3 [4]): Active
13 | C=CCSSCC=C [DIALLYLDISULFIDE] | – | Metabolite_Detected | – | –
